Consider 46 compounds from BindingDB's records for patent US20250313563 (The Broad Institute, 2025).

Assay [1] has as its target Glycogen synthase kinase-3 beta (Homo sapiens, UniProt P49841). Put plainly: TR-FRET Assay. The essentials:
(§1)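 TR-FRET readout: streptavidin-d2 (40 nM in added detection mix) plus Tb-anti-pSer641 Ab (2 nM in mix). Steps were 30 min compound preincubation, kinase reaction, then EDTA stop.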
(Time-resolved FRET reads energy transfer from a long-lived donor to a nearby acceptor.)

For assay [2], the target named is Glycogen synthase kinase-3 alpha (Homo sapiens, UniProt P49840). Put plainly: TR-FRET Assay. The essentials:
as §1

Chain of Glycogen synthase kinase-3 alpha (P49840 whole entry): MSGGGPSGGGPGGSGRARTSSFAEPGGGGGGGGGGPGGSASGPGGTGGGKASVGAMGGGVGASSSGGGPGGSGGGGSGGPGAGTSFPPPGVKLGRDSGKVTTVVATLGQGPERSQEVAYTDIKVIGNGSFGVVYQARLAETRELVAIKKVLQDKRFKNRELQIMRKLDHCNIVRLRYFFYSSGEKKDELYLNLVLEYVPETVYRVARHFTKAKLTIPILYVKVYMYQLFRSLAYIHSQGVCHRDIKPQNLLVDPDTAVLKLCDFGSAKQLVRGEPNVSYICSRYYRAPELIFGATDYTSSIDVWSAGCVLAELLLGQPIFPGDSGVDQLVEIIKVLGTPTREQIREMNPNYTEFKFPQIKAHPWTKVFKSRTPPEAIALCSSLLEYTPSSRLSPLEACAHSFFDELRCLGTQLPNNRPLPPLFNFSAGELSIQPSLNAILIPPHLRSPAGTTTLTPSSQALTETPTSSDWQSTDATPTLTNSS
Chain of Glycogen synthase kinase-3 beta (P49841 whole entry): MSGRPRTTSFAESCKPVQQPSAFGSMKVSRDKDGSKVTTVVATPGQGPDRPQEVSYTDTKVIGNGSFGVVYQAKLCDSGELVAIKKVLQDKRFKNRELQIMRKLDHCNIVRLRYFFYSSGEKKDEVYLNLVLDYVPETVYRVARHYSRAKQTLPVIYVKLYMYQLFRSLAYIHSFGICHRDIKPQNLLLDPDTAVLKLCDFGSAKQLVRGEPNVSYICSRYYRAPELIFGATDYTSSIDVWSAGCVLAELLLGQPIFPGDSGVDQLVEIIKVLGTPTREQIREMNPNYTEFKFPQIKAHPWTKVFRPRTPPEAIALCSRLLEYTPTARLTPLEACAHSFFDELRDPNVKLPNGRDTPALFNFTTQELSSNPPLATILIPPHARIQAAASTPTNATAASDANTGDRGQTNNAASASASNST

As usually defined, the IC50 is the concentration at which inhibition is half-maximal. As for `CC[C@@]1(c2cccc(C)c2)C2=CN=NC2NC2=C1C(=O)CC1(CCCC1)C2` (some centres not stated) [US20250313563, Compound 801312], the IC50 in assay [1] is 0.1 to 1 µM; in assay [2], less than 0.1 µM.
On to `CCC1(COCc2ccccc2)C2=C(N=NC2)NC2=C1C(=O)CC(C)(C)C2` (configuration not stated) [US20250313563, Compound 874313], for which the IC50 in assay [1] and in assay [2] was 1 to 5 µM throughout.
Take `CC[C@@]1(c2ccccc2)C2=CN=NC2NC2=C1C(=O)[C@@H](C)C[C@H]2C` (some centres not stated) [US20250313563, Compound 909218]: the 50% inhibitory concentration (IC50) in assay [1] and in assay [2] was greater than 5 µM throughout.
For `CCC1(c2cccc(-c3ccnc(OC)n3)c2)C2=CN=NC2NC2=C1C(=O)CC(C)(C)C2` (configuration not stated) [US20250313563, Compound 948092], the IC50 in assay [1] and in assay [2] was less than 0.1 µM throughout.
In the case of `C[C@@H]1CCC[C@@]12C1=CN=NC1NC1=C2C(=O)CC(C)(C)C1` (some centres not stated) [US20250313563, Compound 874319], the IC50 in assay [1] and in assay [2] was 1 to 5 µM throughout.
On to `CC[C@@]1(c2cccc(N3CCOCC3)c2)C2=C(CC(C)(C)NC2=O)NC2N=NC(C(F)(F)F)=C21` (some centres not stated) [US20250313563, Compound 949013], for which the half-inhibitory concentration (IC50) in assay [1] and in assay [2] was less than 0.1 µM in each case.
On to `CC[C@@]1(c2cccc(-c3cnn(-c4ccccc4)c3F)c2)C2=CN=NC2NC2=C1C(=O)NC(C)(C)C2` (some centres not stated) [US20250313563, Compound 950821], for which the IC50 was 1 to 5 µM in assay [1] and 0.1 to 1 µM in assay [2].
The like results for `CC[C@@]1(c2cccc(C(F)(F)F)c2)C2=C(N=NC2)NC2=C1C(=O)N(Cc1ccccc1)C2` [US20250313563, Compound 929389] were, in that order, greater than 5 µM and 1 to 5 µM.
Take `CC[C@@]1(c2cccc(-c3ccncc3C)c2)C2=CN=NC2NC2=C1C(=O)N[C@]1(CCCOC1)C2` (some centres not stated) [US20250313563, Compound 947910]: the IC50 in assay [1] and in assay [2] was less than 0.1 µM each time.
As for `Cn1ccc(-c2cccc([C@]3(C)C4=C(CC(C)(C)CC4=O)NC4=C3C(CC(C)(C)C)N=N4)c2)n1` (some centres not stated) [US20250313563, Compound 126366], the IC50 in assay [1] was 0.1 to 1 µM; in assay [2], 1 to 5 µM.
On the same counts, the results for `CCC1(c2cccc(-c3ccnc4c3CCC4)c2)C2=C(N=NC2)NC2=C1C(=O)C(C)(C)C2` (configuration not stated) [US20250313563, Compound 952557] are 0.1 to 1 µM and less than 0.1 µM.
In the case of `CC1(C)CC(=O)C2=C(C1)NC1=C(CN=N1)[C@@]21CCN(S(=O)(=O)c2ccccc2F)C1` [US20250313563, Compound 945719], the IC50 in assay [1] and in assay [2] was less than 0.1 µM throughout.
On to `CC1(C)CC(=O)C2=C(C1)NC1N=NC(Br)=C1C21CCc2c(F)cccc21` (configuration not stated) [US20250313563, Compound 801358], for which the IC50 in assay [1] and in assay [2] was less than 0.1 µM in each case.
Regarding `CCC1(c2cccc(-c3ccncc3F)c2)C2=C(CC(C)(C)NC2=O)NC2N=NC(C(F)F)=C21` (configuration not stated) [US20250313563, Compound 950320], the IC50 in assay [1] and in assay [2] was less than 0.1 µM throughout.
In the case of `CC1(C)CC(=O)C2=C(C1)NC1=C(CN=N1)[C@@]21CCCOCC1` [US20250313563, Compound 874536], the IC50 lay within 1 to 5 µM in assay [1] and 0.1 to 1 µM in assay [2].
Consider `CC[C@@]1(c2cc(-c3cnn(C)c3)ccc2F)C2=CN=NC2NC2=C1C(=O)CC(C)(C)C2` (some centres not stated) [US20250313563, Compound 909223], for which the IC50 in assay [1] and in assay [2] was greater than 5 µM each time.
As to `CCC1(c2cccc(N3CCN(C)CC3)c2)C2=CN=NC2NC2=C1C(=O)CC(C)(C)C2` (configuration not stated) [US20250313563, Compound 810379], the IC50 is greater than 5 µM in assay [1] and greater than 1.67 µM in assay [2].
The like results for `CCC1(c2cccc(-c3cnn(C)c3C)c2)C2=C(CC(C)(C)NC2=O)NC2N=NC(C)=C21` (configuration not stated) [US20250313563, Compound 944028] were, in that order, 0.1 to 1 µM and less than 0.1 µM.
On the same counts, the results for `CC[C@]1(c2cccc(-c3cnn(C)c3)c2)C2=C(CC(C)(C)CC2=O)NC2N=NC(C(F)(F)F)=C21` (some centres not stated) [US20250313563, Compound 811565] are less than 0.1 µM and less than 0.1 µM.
The like results for `O=C1CC(C(F)(F)F)CC2=C1C1(CCOCC1)C1=C(N=NC1)N2` (configuration not stated) [US20250313563, Compound 889572] were, in that order, 0.1 to 1 µM and 0.1 to 1 µM.
With `CCC1(c2cccc(N3CCCCCC3)c2)C2=CN=NC2NC2=C1C(=O)CC(C)(C)C2` (configuration not stated) [US20250313563, Compound 885088], the IC50 in assay [1] and in assay [2] was 0.1 to 1 µM throughout.
On to `CC[C@]1(c2ccccc2)C2=CN=NC2NC2=C1C(=O)[C@H](C)C[C@H]2C` (some centres not stated) [US20250313563, Compound 865199], for which the IC50 in assay [1] is greater than 5 µM; in assay [2] it was 1 to 5 µM.
For the compound `CCC1(c2cccc(-c3cn(C)nc3C)c2)C2=C(CC(C)(C)CC2=O)NC2N=NC(C)=C21` (configuration not stated) [US20250313563, Compound 884003], the IC50 in assay [1] and in assay [2] was less than 0.1 µM in each case.
Take `CCn1cc(N2CCC3=C(C2=O)[C@](CC)(c2cccc(C(F)(F)F)c2)C2=CN=NC2N3)cn1` (some centres not stated) [US20250313563, Compound 949867]: the 50% inhibitory concentration (IC50) in assay [1] was 0.1 to 1 µM; in assay [2] it was less than 0.1 µM.
For `CCC1(c2cccc(N(C)c3cc(C)cc(C)n3)c2)C2=CN=NC2NC2=C1C(=O)CC(C)(C)C2` (configuration not stated) [US20250313563, Compound 943538], the IC50 in assay [1] was 0.1 to 1 µM; in assay [2], less than 0.1 µM.
Consider `CC[C@]1(c2cccc(-c3ccnc(C(F)F)c3)c2)C2=CN=NC2NC2=C1C(=O)CC(C)(C)C2` (some centres not stated) [US20250313563, Compound 943915], for which the IC50 in assay [1] and in assay [2] was greater than 5 µM throughout.
As to `Cc1c(S(=O)(=O)N2CCC3(CC2)C2=C(N=NC2)NC2=C3C(=O)CC(C)(C)C2)cnn1C` [US20250313563, Compound 947460], the IC50 in assay [1] and in assay [2] was less than 0.1 µM in each case.
Take `CC[C@]1(c2cccc(C(F)(F)F)c2)C2=CN=NC2NC2=C1C(=O)N(C)C[C@@H]2C` (some centres not stated) [US20250313563, Compound 883979]: the IC50 in assay [1] and in assay [2] was less than 0.1 µM each time.
As for `Cc1ccc(S(=O)(=O)N2CCC3(CC2)C2=C(N=NC2)NC2=C3C(=O)CC(C)(C)C2)cc1Cl` [US20250313563, Compound 947241], the IC50 in assay [1] and in assay [2] was less than 0.1 µM each time.
`CC[C@]1(c2cccc(-c3cc[n+]([O-])c(C)c3)c2)C2=CN=NC2NC2=C1C(=O)CC(C)(C)C2` (some centres not stated) [US20250313563, Compound 946055]: the IC50 is 1 to 5 µM in assay [1] and 0.1 to 1 µM in assay [2].
Take `Cn1nc(C(F)(F)F)cc1S(=O)(=O)N1CCC2(CC1)C1=C(N=NC1)NC1=C2C(=O)CC(C)(C)C1` [US20250313563, Compound 947606]: the IC50 in assay [1] and in assay [2] was less than 0.1 µM each time.
As to `CC[C@]1(c2cccc(S(C)(=O)=O)c2)C2=C(CC(C)(C)NC2=O)NC2N=NC(C)=C21` (some centres not stated) [US20250313563, Compound 947811], the IC50 in assay [1] and in assay [2] was less than 0.1 µM in each case.
As for `CC[C@]1(c2cccc(N3C[C@@H](C)[C@@H](C)C3)c2)C2=CN=NC2NC2=C1C(=O)CC(C)(C)C2` (some centres not stated) [US20250313563, Compound 918326], the IC50 in assay [1] and in assay [2] was 0.1 to 1 µM each time.
Turning to `Cn1cc(CN2CC3(C2)C2=C(N=NC2)NC2=C3C(=O)CC(C)(C)C2)cn1` [US20250313563, Compound 929439], the IC50 in assay [1] and in assay [2] was greater than 5 µM throughout.
`CC[C@@]1(c2cccc(N(C)c3cccc(C)n3)c2)C2=CN=NC2NC2=C1C(=O)CC(C)(C)C2` (some centres not stated) [US20250313563, Compound 932656]: the IC50 in assay [1] and in assay [2] was greater than 5 µM in each case.
Turning to `CCC1(c2cccc(C(F)(F)F)c2)C2=C(CC(C)(C)CC2=O)NC2N=NC(C)=C21` (configuration not stated) [US20250313563, Compound 801321], the IC50 in assay [1] and in assay [2] was less than 0.1 µM in each case.
For `CC[C@@]1(c2cccc(-c3ccnc4ccccc34)c2)C2=CN=NC2NC2=C1C(=O)CC(C)(C)C2` (some centres not stated) [US20250313563, Compound 944031], the IC50 in assay [1] and in assay [2] was less than 0.1 µM in each case.
Turning to `CCC1(c2cccc(N3CCOCC3)c2)C2=C(CC(C)(C)CC2=O)NC2N=NC(C(F)(F)F)=C21` (configuration not stated) [US20250313563, Compound 810507], the IC50 in assay [1] and in assay [2] was less than 0.1 µM in each case.
As to `CC1(C)CC(=O)C2=C(C1)NC1=C(CN=N1)C21CN(C2CCCCC2)C1` [US20250313563, Compound 929446], the IC50 in assay [1] and in assay [2] was 1 to 5 µM throughout.
As for `CC1(C)CC(=O)C2=C(C1)NC1=C(CN=N1)[C@@]21CCO[C@@H](C(F)(F)F)C1` [US20250313563, Compound 884024], the IC50 in assay [1] was greater than 5 µM; in assay [2], 1 to 5 µM.
The like results for `CC[C@]1(c2cccc(OC)c2)C2=C(CC(C)(C)CC2=O)NC2N=NC(C(F)(F)F)=C21` (some centres not stated) [US20250313563, Compound 884118] were, in that order, 1 to 5 µM and 0.1 to 1 µM.
As to `CN(C)C(=O)c1cccc(S(=O)(=O)N2CCC3(CC2)C2=C(N=NC2)NC2=C3C(=O)CC(C)(C)C2)c1` [US20250313563, Compound 947247], the IC50 in assay [1] and in assay [2] was less than 0.1 µM each time.
In the case of `CC[C@]1(c2cccc(Br)c2)C2=CN=NC2NC2=C1C(=O)C[C@H](C)C2` (some centres not stated) [US20250313563, Compound 810486], the IC50 in assay [1] was 0.1 to 1 µM; in assay [2], less than 0.1 µM.
On the same counts, the results for `CC[C@@]1(c2cccc(C(F)(F)F)c2)C2=CN=NC2NC2=C1C(=O)N(c1cnsc1)CC2` (some centres not stated) [US20250313563, Compound 951742] are 1 to 5 µM and 0.1 to 1 µM.
On to `CCC1(c2cccc(N3CC4CCC3C4)c2)C2=CN=NC2NC2=C1C(=O)CC(C)(C)C2` (configuration not stated) [US20250313563, Compound 885110], for which the IC50 is 0.1 to 1 µM in assay [1] and less than 0.1 µM in assay [2].
On the same counts, the results for `CCC1(c2cccc(S(=O)(=O)C(C)C)c2)C2=C(CC(C)(C)NC2=O)NC2N=NC(C(F)(F)F)=C21` (configuration not stated) [US20250313563, Compound 947800] are less than 0.1 µM and less than 0.1 µM.
